Results published in patent US6673813B2, “Methods for identifying and treating resistant tumors” (priority 1994, dated 2004).

Legend:
[1] = tested on: HL60/ADR cells; assay: Assay for reversal of Adriamycin resistance (cell growth, MTS); format: cell-based, human; conditions: test compound in addition to Adriamycin, samples diluted to 20 μM, 25 μl per 100 μl well, 72 hours
Source text: HL60/ADR is a continuous cell line, which was selected for Adriamycin™ resistance by culturing HL60, a human acute myeloblastic leukemia cell line, in increasing concentrations of Adriamycin™ until a highly resistant variant was attained. (McGrath, T., et al., Biochem. […] Marquardt, D. and Center, M. S., Cancer Res., 52: 3157, (1992); and Marquardt, D., et al., Cancer Res., 50: 1426, (1990)). […] Cells were harvested; washed twice with assay medium (same as culture media); counted; and diluted to 2×10^5 cells/ml in assay medium. Fifty μl of cells were aliquoted into wells of a 96 well tissue culture plate. One column of each 96 well plate served as a negative control and received assay medium containing no cells. Test compounds and references compounds were dissolved in dimethyl sulfoxide (DMSO) at a concentration of 5 mM. […] Assay standards were run in quadruplicate. 25 μl of 0.4% DMSO was added to four wells as a solvent control. […] The plates were incubated at 37° Centigrade for 72 hours in a humidified incubator with a 5% CO2 atmosphere. A CellTiter96 Aqueous Assay Kit (Promega) was used to measure cell viability and vitality via […] of a tetrazolium salt. The assay was performed in accordance with the vendors instructions, which required 2 ml of MTS reagent being mixed with 0.1 ml of PMS reagent and 20 μl of this solution was added to each well. The plates were incubated for 3 hours at 37° C. Absorbance was determined at 490 nm using a microtitre plate reader. The ability of a test compound to reverse the resistance of HL60/ADR cells to Adriamycin was determined by comparison of the absorbance of the wells containing a test compound in addition to Adriamycin with the absorbance of wells containing Adriamycin without a test compound. Controls were used to eliminate background and to ensure the results were not artifactual. The results of the assay are expressed as percent inhibition of cell growth.

Row | SMILES | melting point | % Inhibition (percent inhibition of cell growth) [1]
1 | CCCc1c(OCCCOc2cc(O)c(-c3ccc(F)cc3)cc2CC)cccc1S(=O)(=O)c1ccccc1C(=O)O (hydrate or solvate) [Example 17, 2-[2-Propyl-3-[3-[2-ethyl-4-(4-fluorophenyl)-5-hydroxyphenoxy]propoxy]phenylsulfonyl]benzoic acid hydrate] | 80 to 90 °C | 
2 | CCc1cc(-c2ccc(F)cc2)c(O)cc1OCCCOc1cccc(Oc2ccccc2C(=O)O)c1Cc1ccccc1 [Example 12, 2-[2-(Phenylmethyl)-3-[3-[2-ethyl-5-hydroxy-4-(4-fluorophenyl)phenoxy]propoxy]phenoxy]benzoic acid] |  | 62%
3 | CCCc1c(OCCCOc2cc(O)c(-c3ccc(F)cc3)cc2CC)cccc1[S+]([O-])c1ccccc1C(=O)O (stereo not drawn) [Example 16, 2-[2-Propyl-3-[3-[2-ethyl-4-(4-fluorophenyl)-5-hydroxyphenoxy]propoxy]phenylsulfinyl]benzoic acid] | > 100 °C (dec.) | 35%
4 | CCCc1c(OCCCCOc2cc(O)c(-c3ccc(F)cc3)cc2CC)cccc1Oc1ccccc1C(=O)O [Example 9, 2-[2-Propyl-3-[4-[2-ethyl-5-hydroxy-4-(4-fluorophenyl)-phenoxy]butoxy]phenoxy]benzoic acid sesquihydrate] |  | 61%
5 | CCCCc1c(OCCCOc2cc(O)c(-c3ccc(F)cc3)cc2CC)cccc1Oc1ccccc1C(=O)O (hydrate or solvate) [Example 11, 2-[2-Butyl-3-[3-[2-ethyl-5-hydroxy-4-(4-fluorophenyl)phenoxy]propoxy]phenoxy]benzoic acid hydrate] | 62 to 64 °C | 
6 | CCCc1c(OCCCOc2cc(O)c(-c3ccc(F)cc3)cc2CC)ccc2c1OC(C(=O)O)CC2 (stereo not drawn) [Example 1, 8-Propyl-7-[3-[4-(4-fluorophenyl)-2-ethyl-5-hydroxyphenoxy]propoxy]-3,4-dihydro-2H-1-benzopyran-2-carboxylic acid] |  | 54%
7 | CCCc1c(OCCCOc2cc(O)c(-c3ccc(F)cc3)cc2CC)cccc1Sc1ccccc1C(=O)O [Example 15, 2-[2-Propyl-3-[3-[2-ethyl-4-(4-fluorophenyl)-5-hydroxyphenoxy]propoxy]thiophenoxy]benzoic acid] | 153 to 155 °C | 73%
8 | CCCc1c(OCCCOc2cc(O)c(-c3ccc(F)cc3)cc2CC)cccc1Oc1cccc(F)c1C(=O)[O-].[Na+] [Example 6, 2-Fluoro-6-[2-propyl-3-[3-[2-ethyl-5-hydroxy-4-(4-fluorophenyl)phenoxy]propoxy]phenoxy]benzoic acid disodium salt hydrate] |  | 35%
9 | CCCc1c(OCCCOc2cc(O)c(-c3ccccc3)cc2CC)cccc1Oc1ccccc1C(=O)[O-].[Na+] [Example 2, 2-[2-Propyl-3-[3-(2-ethyl-5-hydroxy-4-phenylphenoxy)-propoxy]phenoxy]benzoic acid sodium salt hemihydrate] |  | 63%
10 | CCCc1c(OCCCCOc2cc(O)c(-c3ccc(F)cc3)cc2CC)cccc1Oc1ccccc1C(=O)O (hydrate or solvate) [Example 9, 2-[2-Propyl-3-[4-[2-ethyl-5-hydroxy-4-(4-fluorophenyl)-phenoxy]butoxy]phenoxy]benzoic acid sesquihydrate] | 65 to 68 °C | 
11 | CCCc1c(Cc2ccccc2C(=O)O)cccc1OCCCOc1cc(O)c(-c2ccc(F)cc2)cc1CC [Example 14, 2-[[2-Propyl-3-[3-[2-ethyl-5-hydroxy-4-(4-fluorophenyl)phenoxy]propoxy]phenyl]methyl]benzoic acid] | 150 to 151 °C | 58%
12 | CCCc1c(OCCCOc2ccc(C(C)=O)c(OC)c2CCC)ccc2c1OC(C(=O)O)CC2 (stereo not drawn) [Example 18, 8-Propyl-7-[3-[4-acetyl-3-methoxy-2-propylphenoxy]propoxy]-3,4-dihydro-2H-1-benzopyran-2-carboxylic acid] |  | 67%
13 | CCc1cc(-c2ccc(F)cc2)c(O)cc1OCCCOc1cccc(Oc2ccccc2C(=O)O)c1CC(C)C [Example 10, 2-[2-(2-Methylpropyl)-3-[3-[2-ethyl-5-hydroxy-4-(4-fluorophenyl)phenoxy]propoxy]phenoxy]benzoic acid] | 48 to 49 °C | 49%
14 | CCCc1c(OCCCOc2cc([O-])c(-c3ccccc3)cc2CC)cccc1Oc1cccc(F)c1C(=O)[O-].[Na+].[Na+] [Example 4, 2-Fluoro-6-[2-propyl-3-[3-(2-ethyl-5-hydroxy-4-phenylphenoxy)propoxy]phenoxy]benzoic acid disodium salt] |  | 38%
15 | CCCc1c(OCCCCCOc2cc(O)c(-c3ccc(F)cc3)cc2CC)cccc1Oc1ccccc1C(=O)O [Example 8, 2-[2-Propyl-3-[5-[2-ethyl-5-hydroxy-4-(4-fluorophenyl)phenoxy]pentoxy]phenoxy]benzoic acid] | 65 °C (dec.) | 57%
16 | CCCCc1c(OCCCOc2cc(O)c(-c3ccc(F)cc3)cc2CC)cccc1Oc1ccccc1C(=O)O [Example 11, 2-[2-Butyl-3-[3-[2-ethyl-5-hydroxy-4-(4-fluorophenyl)phenoxy]propoxy]phenoxy]benzoic acid hydrate] |  | 47%
17 | CCCc1c(OCCCOc2cc(O)c(-c3ccc(F)cc3)cc2CC)cccc1Oc1cc(F)ccc1C(=O)O [Example 7, 4-Fluoro-2-[2-propyl-3-[3-[2-ethyl-5-hydroxy-4-(4-fluorophenyl)phenoxy]propoxy]phenoxy]benzoic acid] | 62 to 64 °C | 72%
18 | CCCc1c(OCCCOc2cc(O)c(-c3ccc(F)cc3)cc2CC)cccc1C(=O)c1ccccc1C(=O)O [Example 13, 2-[2-Propyl-3-[3-[2-ethyl-5-hydroxy-4-(4-fluorophenyl)phenoxy]propoxy]benzoyl]benzoic acid] |  | 64%
19 | CCCc1c(OCCCOc2cc(O)c(-c3ccc(F)cc3)cc2CC)cccc1Oc1ccccc1C(=O)[O-].[Na+] [Example 5, 2-[2-Propyl-3-[3-[2-ethyl-4-(4-fluorophenyl)-5-hydroxyphenoxy]propoxy]phenoxy]benzoic acid sodium salt] |  | 23%
20 | CCCc1c(OCCCOc2cc(O)c(-c3ccc(F)cc3)cc2CC)cccc1S(=O)(=O)c1ccccc1C(=O)O [Example 17, 2-[2-Propyl-3-[3-[2-ethyl-4-(4-fluorophenyl)-5-hydroxyphenoxy]propoxy]phenylsulfonyl]benzoic acid hydrate] |  | 25%
21 | CCCc1c(OCCCOc2cc([O-])c(-c3ccccc3)cc2CC)cccc1Oc1ccccc1-c1nnn[n-]1.[Na+].[Na+] [Example 3, 5-Ethyl-4-[3-[2-propyl-3-[2-(2H-tetrazol-5-yl)phenoxy]phenoxy]propoxy][1,1′-biphenyl]-2-ol disodium salt sesquihydrate] |  | 55%
